BindingDB's records for patent US12552758 (Neophore, 2026)

Tests used:
[1] = target: T1, DNA mismatch repair protein Mlh1 (UniProt P40692); assay: Fluorescence Polarisation Assay for MLH1
T1 sequence (P40692 whole entry): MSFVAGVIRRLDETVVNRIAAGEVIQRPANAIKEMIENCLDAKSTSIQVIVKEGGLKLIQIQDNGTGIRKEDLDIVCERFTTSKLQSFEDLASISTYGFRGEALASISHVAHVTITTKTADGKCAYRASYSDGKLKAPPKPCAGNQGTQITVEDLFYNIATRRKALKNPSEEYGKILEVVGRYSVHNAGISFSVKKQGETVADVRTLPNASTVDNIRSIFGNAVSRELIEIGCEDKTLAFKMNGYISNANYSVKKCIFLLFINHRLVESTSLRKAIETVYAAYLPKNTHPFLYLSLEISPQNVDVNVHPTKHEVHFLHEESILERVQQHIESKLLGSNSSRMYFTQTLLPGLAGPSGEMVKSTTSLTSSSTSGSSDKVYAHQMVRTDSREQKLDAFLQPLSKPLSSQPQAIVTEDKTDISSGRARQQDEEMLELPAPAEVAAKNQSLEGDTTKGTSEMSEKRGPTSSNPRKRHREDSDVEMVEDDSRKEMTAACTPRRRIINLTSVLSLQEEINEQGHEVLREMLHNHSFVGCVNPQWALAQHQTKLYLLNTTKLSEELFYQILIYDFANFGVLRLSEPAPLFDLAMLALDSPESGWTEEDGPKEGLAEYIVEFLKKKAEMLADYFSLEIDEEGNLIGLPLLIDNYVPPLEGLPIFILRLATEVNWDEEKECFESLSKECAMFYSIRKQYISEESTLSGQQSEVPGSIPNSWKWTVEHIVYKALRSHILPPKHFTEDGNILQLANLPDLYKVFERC
Method: 20 μL assay buffer was added to all wells in columns 1 and 24 (column 24 only for single point screening) using a MultiDrop Combi (ThermoFisher). Plates were centrifuged for 1 minute at 250×g and were incubated at room temperature for 30 minutes prior to the addition of 20 μL of 2×(10 nM) of 5-((5-(4-((2-(2,4-dihydroxy-5-isopropylbenzoyl)isoindolin-5-yl)methyl)piperazin-1-yl)pentyl)carbamoyl)-2-(6-(dimethylamino)-3-(dimethyliminio)-3H-xanthen-9-yl)benzoate (referred to hereinafter as “probe compound”) in assay buffer (prepared from a 100 μM DMSO stock) with a MultiDrop Combi (ThermoFisher). The final concentration of N-terminal MLH1 was 100 nM and the final concentration of probe compound was 5 nM.

[2] = target: T2, Mismatch repair endonuclease PMS2 (UniProt P54278); assay: Fluorescence Polarisation Assay for PMS2
T2 sequence (P54278 whole entry): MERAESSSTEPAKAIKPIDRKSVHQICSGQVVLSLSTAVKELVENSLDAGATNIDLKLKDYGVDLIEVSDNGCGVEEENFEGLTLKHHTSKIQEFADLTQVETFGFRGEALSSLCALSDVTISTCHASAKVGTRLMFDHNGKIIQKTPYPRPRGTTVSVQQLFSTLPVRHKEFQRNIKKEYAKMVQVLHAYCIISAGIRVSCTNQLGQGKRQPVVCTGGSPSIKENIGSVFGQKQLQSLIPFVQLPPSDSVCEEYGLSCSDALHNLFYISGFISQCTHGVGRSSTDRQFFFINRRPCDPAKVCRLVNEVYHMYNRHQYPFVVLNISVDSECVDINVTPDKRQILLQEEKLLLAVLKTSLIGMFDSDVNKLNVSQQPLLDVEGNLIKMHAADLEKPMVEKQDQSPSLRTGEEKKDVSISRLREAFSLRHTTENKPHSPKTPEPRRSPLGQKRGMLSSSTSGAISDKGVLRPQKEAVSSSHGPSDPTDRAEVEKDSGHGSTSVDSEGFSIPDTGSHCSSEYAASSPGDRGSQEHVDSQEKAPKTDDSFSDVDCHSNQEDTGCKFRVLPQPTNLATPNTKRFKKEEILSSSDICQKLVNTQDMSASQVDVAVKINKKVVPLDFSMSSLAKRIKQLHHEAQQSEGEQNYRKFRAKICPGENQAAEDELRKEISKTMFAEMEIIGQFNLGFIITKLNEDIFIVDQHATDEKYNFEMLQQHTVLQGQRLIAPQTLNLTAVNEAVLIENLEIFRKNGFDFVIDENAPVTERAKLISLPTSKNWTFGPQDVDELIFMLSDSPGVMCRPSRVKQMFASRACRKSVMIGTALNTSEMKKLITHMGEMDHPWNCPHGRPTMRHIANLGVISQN
Method: 20 μL assay buffer was added to all wells in columns 1 and 24 (column 24 only for single point screening) using a MultiDrop Combi (ThermoFisher). Plates were centrifuged for 1 minute at 250×g and were incubated at room temperature for 30 minutes prior to the addition of 20 μL of 2×([…]) of 5-((5-(4-((2-(2,4-dihydroxy-5-isopropylbenzoyl)isoindolin-5-yl)methyl)piperazin-1-yl)pentyl)carbamoyl)-2-(6-(dimethylamino)-3-(dimethyliminio)-3H-xanthen-9-yl)benzoate (referred to hereinafter as “probe compound”) in assay buffer (prepared from a 100 μM DMSO stock) with a MultiDrop Combi (ThermoFisher). The final concentration of N-terminal PMS2 was 10 nM and the final concentration of probe compound was 5 nM.

Row | Structure (SMILES) | IC50 [1] | IC50 [2]
1 | Cc1c(O)cc(O)c(C(=O)N2Cc3cccnc3C2)c1OCc1ccccc1 [US12552758, Example 30] | > 10 µM | < 1 µM
2 | Cc1c(O)cc(O)c(C(=O)N2Cc3cccc(Br)c3C2)c1OCc1ccccc1 [US12552758, Example 38] | > 10 µM | < 1 µM
